The source of these data is US20260146044A1, “AROMATIC COMPOUND, PHARMACEUTICAL COMPOSITION CONTAINING SAME, AND USE THEREOF” (Increland, priority 2023, published 2026).

Like-named read-outs stand apart in the source and are kept apart here.

Data set [1] in a line: Pharmacokinetic experiment on mice (iv and ig). The conditions noted are these: mouse, plasma, BALB/c Mice; for bioavailability: ig 5.00 mg/kg vs iv 1.00 mg/kg, read-out: Oral bioavailability Fobs (%); for Cmax: read-out: Peak plasma concentration Cmax. It counts as in vivo.
Data set [2] relates to secretion levels of IL-6 in PBMC cells. Briefly: Inhibition of LPS+IL-1β-induced IL-6 secretion in PBMC (IL-6 ELISA). It counts as cell-based. The note with it: human PBMC, 24 h compound pre-incubation, 20 h stimulation. In general terms: ELISA stands for enzyme-linked immunosorbent assay.
The target of a further data set is T1, IRAK4 protein (Homo sapiens, UniProt Q9NWZ3).
T1 construct: Effects of Compounds on IRAK4 Protein Degradation in THP1 Cells; endogenous in cells; host or cells: THP-1 cells
T1 sequence (Q9NWZ3 1-460): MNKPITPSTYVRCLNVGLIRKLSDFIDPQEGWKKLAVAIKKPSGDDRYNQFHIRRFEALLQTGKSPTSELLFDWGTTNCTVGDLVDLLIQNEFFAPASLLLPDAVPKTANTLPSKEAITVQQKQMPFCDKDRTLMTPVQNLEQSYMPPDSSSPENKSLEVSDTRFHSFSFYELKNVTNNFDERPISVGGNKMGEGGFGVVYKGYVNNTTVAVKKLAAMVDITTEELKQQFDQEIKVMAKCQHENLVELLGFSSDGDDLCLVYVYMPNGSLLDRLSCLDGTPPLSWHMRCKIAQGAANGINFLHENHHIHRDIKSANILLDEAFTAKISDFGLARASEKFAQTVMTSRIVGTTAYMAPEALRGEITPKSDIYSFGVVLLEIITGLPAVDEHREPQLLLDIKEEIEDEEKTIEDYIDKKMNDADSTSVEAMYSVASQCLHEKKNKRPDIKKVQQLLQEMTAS
In words: IRAK4 protein degradation in THP1 cells (Western blot). It counts as cell-based. The conditions noted are these: 24 h. On the procedure:
THP-1 cells were inoculated into a 96-well cell culture plate, with 5×10^4 cells and 100 μL of a culture medium per well. The cell culture plate was cultured in an incubator with 5% CO2 at 37° C. overnight. 100 nl of a well-prepared compound stock solution and a compound-free DMSO stock solution were respectively added to cells per well. The cell culture plate was incubated in an incubator with 5% CO2 at 37° C. for 24 h. One protease inhibitor tablet and one phosphatase inhibitor tablet were added to 20 mL of a cell lysis buffer, and they were gently mixed until complete dissolution. DTT at a final concentration of 200 mM was added to a 4× sample preparation buffer to prepare a 4× sample preparation working solution. 20× electrophoretic buffer was diluted to 1× with ultrapure water. 20× transfer buffer was diluted to 1× with ultrapure water, and 20% methanol was added. […] IRAK4 protein primary antibody working solution: 20 μl of IRAK4 antibody added to 20 mL of a blocking solution; β-Actin primary antibody working solution: 2 μl of beta-actin (13E5) Rabbit mAb antibody added to 20 mL of a blocking solution. IRAK4 protein secondary antibody working solution: Donkey Anti-Goat IgG H&L (HRP) diluted 1/5,000 in a blocking solution; 3-Actin secondary antibody working solution: Anti-rabbit IgG, RP-linked antibody diluted 1/10,000 in a blocking solution. The cell culture plate was centrifuged at 3,000 rpm for 3 min, and most of the culture medium was carefully pipetted. The cell plate was inverted, and centrifuged at 300 rpm for 30 s. 45 μL of a lysis buffer was added to each well. The mixture was shaken at 300 rpm for 30 s, allowed to stand on ice for 30 min, and pipetted 30 times at 20 min. 6 μL of 4× sample preparation working solution was added to 18 μL of protein supernatant for sample preparation, and the mixture was heated at 70° C. for 10 min. Remaining protein samples were stored at −80° C. In the precast gel, 8 μl of sample was loaded into each well for electrophoresis at a constant voltage of 120 V for about 60 min, transferred using a PVDF membrane at a constant current of 300 mA for 1 h, then blocked with a blocking solution at room temperature for 1 h, and incubated in a primary antibody working solution at 4° C. overnight. The membrane was washed with 1×TBST buffer for 3×10 min. The secondary antibody working solution was incubated at room temperature for 1 h. The membrane was washed with 1×TBST buffer for 3×10 min, and a chromogenic solution was used for exposure and color development.
In general terms: Immunoblotting shows a protein as a band on a membrane.

Usually bioavailability stands for dose-corrected exposure relative to a reference, in per cent. What is called AUC is concentration integrated over time. The low end stands for low exposure, the high end for high exposure. The AUC(0-inf) is total exposure, with the tail of the curve extrapolated. Read a low AUC(0-inf) as low exposure. In general, IC50 refers to the concentration needed to halve the response being measured. By DC50 is commonly meant the concentration at which degradation of the target reaches its halfway point. A higher DC50 goes with a less potent degrader. As to `Cc1nn(C2CCC(=O)NC2=O)c2cccc(N3CC4CN(C[C@H]5CC[C@H](n6cc7cc(NC(=O)c8cnn9cccnc89)c(N8CCOCC8)cc7n6)CC5)CC4C3)c12` (stereo partly drawn) [TM-57], in data set [1] (po), the bioavailability was found to be 48.4%. In data set [1] (po, ig, 5.00 mg/kg), the AUC was 1770 ng·h/mL, the area under the curve AUC(0-inf) is 1920 ng·h/mL and the Cmax was 342 ng/mL. For the same molecule, in data set [1] (iv, 1.00 mg/kg), the AUC came to 790 ng·h/mL, the AUC(0-inf) stood at 795 ng·h/mL and the Cmax was found to be 276 ng/mL. Also, in data set [2], the IC50 was found to be 8.67 nM. At IRAK4 protein, this molecule displayed a DC50 of 3.12 nM.

For `Cc1nn(C2CCC(=O)NC2=O)c2cncc(N3CCN(C[C@H]4CC[C@H](n5cc6cc(NC(=O)c7cnn8cccnc78)c(N7CCO[C@H](C)C7)cc6n5)CC4)CC3)c12` (stereo partly drawn) [TM-109], the bioavailability in data set [1] (po) amounted to 63%. Moreover, in data set [1] (po, ig, 5.00 mg/kg), the area under the curve (AUC) was 10100 ng·h/mL, the total exposure AUC(0-inf) was determined as 10100 ng·h/mL and the Cmax worked out at 1300 ng/mL. In data set [1] (iv, 1.00 mg/kg), the exposure (AUC) turned out to be 3220 ng·h/mL, the AUC(0-inf) is 3220 ng·h/mL and the Cmax turned out to be 605 ng/mL. The IC50 in data set [2] worked out at 39.2 nM. This molecule also returned a DC50 at IRAK4 protein of 4.67 nM.
